Data on two compounds can be found in ChEMBL document CHEMBL1133001, “Protection against oxidative damage by iron chelators: effect of lipophilic analogues and prodrugs of N,N'-bis(3,4,5-trimethoxybenzyl)ethylenediamine- N,N'-diacetic acid (OR10141)” (J Med Chem, 2000).

This experiment can be described thus: Compound was tested for inhibition of hydrogen peroxide toxicity against human skin fibroblasts. Type of experiment: functional.

For the compound `CCCCCCCOc1c(OC)cc(CN(CCN(CC(=O)O)Cc2cc(OC)c(OCCCCCCC)c(OC)c2)CC(=O)O)cc1OC`, 50 µM corresponded to half-maximal inhibition (IC50).

As to `COc1cc(CN(CCN(CC(=O)OCOC(C)=O)Cc2cc(OC)c(OC)c(OC)c2)CC(=O)OCOC(C)=O)cc(OC)c1OC`, the midpoint of inhibition, the IC50, lay at 3 µM.

As usually defined, the IC50 is the midpoint of a concentration-inhibition curve.
